Values joined by “and” are separate entries in the source; they are usually repeats but may differ in a detail not shown here. Equal values may be shown once.
Columns and labels:
Type in all cases: cell-based
DRD3 = DRD3 (Homo sapiens, UniProt P35462); assay: Gαi/o-mediated cAMP inhibition (GloSensor); details: DRD3, cAMP inhibition
DRD2 F1103.28L = biological target: T1, DRD2 F1103.28L (Homo sapiens, UniProt P14416, F110L); assay: β-arrestin2 recruitment (Tango), mutant
T1 construct: expressed in transfected cells; host or cells: HEK293T (ATCC CRL-11268)

5HT1A = biological target: T2, 5HT1A (Homo sapiens, UniProt P08908); assay: β-arrestin2 recruitment (Tango); details: Fig_S10f, single replicates
T2 construct: expressed in transfected cells; host or cells: HTLA cells expressing TEV-fused β-arrestin2
T2 sequence (P08908 1-422): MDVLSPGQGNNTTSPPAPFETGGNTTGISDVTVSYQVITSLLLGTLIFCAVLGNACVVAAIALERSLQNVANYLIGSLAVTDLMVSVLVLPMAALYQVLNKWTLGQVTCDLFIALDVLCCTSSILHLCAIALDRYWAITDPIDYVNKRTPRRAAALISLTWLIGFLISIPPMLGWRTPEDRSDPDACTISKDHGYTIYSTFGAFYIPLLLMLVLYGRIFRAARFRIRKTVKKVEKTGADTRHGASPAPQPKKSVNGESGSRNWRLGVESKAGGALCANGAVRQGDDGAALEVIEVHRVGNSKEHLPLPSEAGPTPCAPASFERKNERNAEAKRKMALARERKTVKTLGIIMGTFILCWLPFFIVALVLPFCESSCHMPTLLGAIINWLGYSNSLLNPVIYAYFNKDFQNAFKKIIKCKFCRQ

5HT1F = biological target: T3, 5HT1F (Homo sapiens, UniProt P30939); assay: β-arrestin2 recruitment (Tango); details: for β-arrestin2 recruitment response, agonist mode (single replicate values): Fig_S10j; for Fig_S10j dose-response, drug alone (agonist mode), β-arrestin2 recruitment: single replicate values
T3 construct: expressed in transfected cells; host or cells: HTLA cells expressing TEV-fused β-arrestin2
T3 sequence (P30939 1-366): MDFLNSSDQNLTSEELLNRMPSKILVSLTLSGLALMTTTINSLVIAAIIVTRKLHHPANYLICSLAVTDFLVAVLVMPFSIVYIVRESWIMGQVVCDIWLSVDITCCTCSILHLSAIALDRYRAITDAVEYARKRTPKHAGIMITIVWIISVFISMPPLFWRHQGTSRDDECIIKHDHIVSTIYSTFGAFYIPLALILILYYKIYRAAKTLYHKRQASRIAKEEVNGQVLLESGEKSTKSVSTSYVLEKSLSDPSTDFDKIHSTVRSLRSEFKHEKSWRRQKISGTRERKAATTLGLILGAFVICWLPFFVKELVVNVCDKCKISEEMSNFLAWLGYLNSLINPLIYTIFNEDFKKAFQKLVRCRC

5HT4 = biological target: T4, 5HT4 (Homo sapiens, UniProt Q13639); assay: β-arrestin2 recruitment (Tango); details: Fig_S10n; for β-arrestin2 recruitment response in presence of serotonin (replicate values): +10μM serotonin; for β-arrestin2 recruitment response (dose-response source data, replicate values): drug alone
T4 construct: expressed in transfected cells; host or cells: HTLA cells expressing TEV-fused β-arrestin2
T4 sequence (Q13639 whole entry, the tested form may be a part): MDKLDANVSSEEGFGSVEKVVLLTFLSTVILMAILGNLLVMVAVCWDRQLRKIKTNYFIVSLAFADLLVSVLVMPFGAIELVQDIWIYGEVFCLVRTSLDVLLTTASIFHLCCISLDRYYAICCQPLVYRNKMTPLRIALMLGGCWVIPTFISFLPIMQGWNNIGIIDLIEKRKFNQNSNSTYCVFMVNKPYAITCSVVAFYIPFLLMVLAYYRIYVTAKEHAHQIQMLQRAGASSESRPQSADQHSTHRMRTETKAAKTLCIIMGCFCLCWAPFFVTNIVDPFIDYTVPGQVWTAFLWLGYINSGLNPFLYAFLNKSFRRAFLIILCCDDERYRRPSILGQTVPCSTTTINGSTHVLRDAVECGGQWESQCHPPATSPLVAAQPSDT

Sequence of DRD3 (P35462 whole entry): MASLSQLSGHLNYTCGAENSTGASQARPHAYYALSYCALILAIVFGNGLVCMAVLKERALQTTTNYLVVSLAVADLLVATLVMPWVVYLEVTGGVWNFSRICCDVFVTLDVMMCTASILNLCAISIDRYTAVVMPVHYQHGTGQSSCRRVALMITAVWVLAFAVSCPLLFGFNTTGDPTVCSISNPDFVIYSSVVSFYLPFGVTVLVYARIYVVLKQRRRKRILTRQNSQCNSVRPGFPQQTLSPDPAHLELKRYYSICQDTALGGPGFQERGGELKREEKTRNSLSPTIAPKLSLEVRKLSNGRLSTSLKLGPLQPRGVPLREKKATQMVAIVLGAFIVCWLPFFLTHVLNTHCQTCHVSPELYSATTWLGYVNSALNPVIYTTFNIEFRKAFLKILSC
T1 sequence (P14416 whole entry F110L): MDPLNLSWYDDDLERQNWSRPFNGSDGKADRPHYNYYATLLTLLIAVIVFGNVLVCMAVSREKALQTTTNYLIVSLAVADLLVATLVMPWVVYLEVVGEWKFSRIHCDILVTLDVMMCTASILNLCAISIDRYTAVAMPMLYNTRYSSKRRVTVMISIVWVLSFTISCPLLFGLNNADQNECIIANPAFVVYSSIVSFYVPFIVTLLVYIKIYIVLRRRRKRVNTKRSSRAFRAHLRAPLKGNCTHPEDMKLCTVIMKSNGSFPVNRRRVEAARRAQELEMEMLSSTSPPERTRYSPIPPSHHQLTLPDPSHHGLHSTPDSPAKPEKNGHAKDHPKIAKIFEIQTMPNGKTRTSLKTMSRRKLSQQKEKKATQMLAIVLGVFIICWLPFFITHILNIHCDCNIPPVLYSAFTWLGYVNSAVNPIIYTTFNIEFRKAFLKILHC

## CCOc1cccc2cc([C@H](C)NCC3(O)CCCCC3)oc12 [O4SE6]
DRD3; agonist, read-out: EC50 ± SEM
  EC50: > 10 µM
DRD3
  G protein agonist activity: no detectable agonist activity
DRD2 F1103.28L
  EC50: > 10 µM
5HT1A; Log[Drug] -9.52
  β-arrestin2 recruitment response, agonist mode (normalized): -0.8354 and -0.6725 and 0.6683 and 0.2383 and 1.852 and 0.7592 and 0.2273 and 0.7234 and 0.9859
5HT1A; Log[Drug] -10
  β-arrestin2 recruitment response, agonist mode (normalized): 0.6642 and 0.6683 and -0.5096 and -0.1895 and -0.3206 and 1.295 and 0.9379 and 4.834 and 0.8483
5HT1A; Log[Drug] -10.52
  β-arrestin2 recruitment response, agonist mode (normalized): 0.8312 and -0.848 and -0.5013 and 0.469 and 0.1267 and -0.3585 and 11.6165 and 0.685 and 0.3585
5HT1A; Log[Drug] -11
  β-arrestin2 recruitment response, agonist mode (normalized): -0.188 and 0.8354 and -0.1713 and -0.4961 and -0.2339 and 0.4322 and 2.113 and 0.3457 and 0.4834
5HT1A; Log[Drug] -11.52
  β-arrestin2 recruitment response, agonist mode (normalized): 1.3325 and -0.1754 and -0.6683 and -0.2719 and 3.032 and -0.4646 and -0.4129 and 1.767 and 1.504
5HT1A; Log[Drug] -12
  β-arrestin2 recruitment response, agonist mode (normalized): 0.1671 and -0.9983 and -0.6683 and -0.2567 and -0.0639 and 2.424 and -0.7778 and 0.7554 and 0.3457
5HT1F; Log[Drug] -8
  β-arrestin2 recruitment response, agonist mode (single replicate values): 1.302 and -0.3873 and 2.074 and -2.101 and -1.406 and -2.308 and -1.812 and -0.8607 and -0.04463
5HT1F; Log[Drug] -8.52
  β-arrestin2 recruitment response, agonist mode (single replicate values): 0.304 and 0.5074 and 1.87 and 1.981 and -1.055 and -1.27 and -1.358 and -1.238 and -0.4845
5HT1F; Log[Drug] -9
  β-arrestin2 recruitment response, agonist mode (single replicate values): 0.9904 and 0.706 and 0.885 and 0.6945 and 9.325 and -1.862 and -2.066 and -0.6583 and 0.2247
5HT1F; Log[Drug] -9.52
  β-arrestin2 recruitment response, agonist mode (single replicate values): 3.047 and -0.8801 and 2.567 and 4.29 and 2.342 and -1.433 and -1.621 and -2.0051 and -0.408
5HT1F; Log[Drug] -10
  β-arrestin2 recruitment response, agonist mode (single replicate values): 4.819 and -0.0956 and 1.856 and -1.573 and -2.24 and -0.1941 and -0.1562 and -0.3459 and -1.4329
5HT1F; Log[Drug] -10.52
  β-arrestin2 recruitment response, agonist mode (single replicate values): 0.4927 and 0.6104 and 0.5001 and 1.318 and -2.635 and -1.961 and -1.313 and -0.102 and -0.1036
5HT1F; Log[Drug] -11
  β-arrestin2 recruitment response, agonist mode (single replicate values): 1.294 and -0.1888 and 1.488 and -1.416 and -3.18 and -0.3234 and -0.2837 and 1.1189 and -0.7348
5HT1F; Log[Drug] -11.52
  β-arrestin2 recruitment response, agonist mode (single replicate values): 2.172 and 1.385 and 0.6864 and -1.406 and -1.13 and -0.05788 and -1.691 and -2.064 and -2.201
5HT1F; Log[Drug] -12
  β-arrestin2 recruitment response, agonist mode (single replicate values): 0.3211 and 1.218 and -0.05883 and -2.747 and -2.758 and -0.03745 and -0.9037 and -1.7453 and 2.037
5HT1F; Log[Drug] -5
  Fig_S10j dose-response, drug alone (agonist mode), β-arrestin2 recruitment: 0.3849 and -0.983 and 0.7697 and -1.569 and -1.842 and 2.318 and -0.9197 and -0.3475 and -1.47
5HT1F; Log[Drug] -5.52
  Fig_S10j dose-response, drug alone (agonist mode), β-arrestin2 recruitment: 7.151 and 5.788 and -0.505 and -0.4698 and 0.6264 and -0.6469 and -1.685 and -0.2789 and -1.819
5HT1F; Log[Drug] -6
  Fig_S10j dose-response, drug alone (agonist mode), β-arrestin2 recruitment: 2.525 and 0.2795 and 1.682 and -0.463 and -1.025 and 2.25 and -2.251 and -0.6646 and -0.8511
5HT1F; Log[Drug] -6.52
  Fig_S10j dose-response, drug alone (agonist mode), β-arrestin2 recruitment: 3.045 and 0.7943 and 0.9757 and -1.712 and -2.09 and -1.297 and -2.011 and -0.3459 and -1.811
5HT1F; Log[Drug] -7
  Fig_S10j dose-response, drug alone (agonist mode), β-arrestin2 recruitment: 1.287 and -0.1961 and 3.15 and 1.852 and -1.692 and -1.42 and -0.2821 and 1.046 and -0.8687
5HT1F; Log[Drug] -7.52
  Fig_S10j dose-response, drug alone (agonist mode), β-arrestin2 recruitment: -0.2819 and 1.395 and 1.76 and -1.559 and -1.409 and -1.542 and -1.242 and 0.6631 and 0.4096
5HT4; Log[Drug] -6.52
  β-arrestin2 recruitment response in presence of serotonin (replicate values): 72.8962
  β-arrestin2 recruitment response (dose-response source data, replicate values): 1.101
5HT4; Log[Drug] -7
  β-arrestin2 recruitment response in presence of serotonin (replicate values): 68.214 and 69.7519 and 58.0435 and 78.1719 and 67.5552 and 58.9312 and 58.5479 and 62.6911 and 62.3338
  β-arrestin2 recruitment response (dose-response source data, replicate values): 0.5278 and 0.7799 and 0.9481 and 2.146 and 2.021 and 0.7677 and -0.1447 and -0.08084 and 0.1108
5HT4; Log[Drug] -7.52
  β-arrestin2 recruitment response in presence of serotonin (replicate values): 78.4713 and 70.1922 and 60.1136 and 64.4542 and 62.425 and 65.749 and 65.0234 and 67.6362 and 68.0461
  β-arrestin2 recruitment response (dose-response source data, replicate values): 1.098 and 0.2279 and 1.538 and 2.02 and 1.183 and 1.483 and -0.2732 and 0.4713 and 0.304
5HT4; Log[Drug] -8
  β-arrestin2 recruitment response in presence of serotonin (replicate values): 79.2214 and 70.638 and 63.1387 and 67.7854 and 68.476 and 59.8854 and 62.949 and 70.8028 and 62.3669

From PMC7044277 (Nature Communications, 2020)
